Laboratory results taken from patent US11066413B2, “Aminopyrimidine five-membered heterocyclic compound, and intermediate, preparation method, pharmaceutical composition and application thereof” (GUANGZHOU MAXINOVEL PHARMACEUTICALS CO., LTD., priority 2017, dated 2021).

Experiments:
hA2A receptor [1] = target: T1, hA2A receptor (Homo sapiens (Human), UniProt P29274); assay: binding affinity IC50 to hA2A receptor ([3H]-CGS 21680 filter binding, Effect Embodiment 2); conditions: A2A membrane, [3H]-CGS 21680 (final 25 nM), 90 minutes at 25° C.
T1 sequence (P29274 whole entry): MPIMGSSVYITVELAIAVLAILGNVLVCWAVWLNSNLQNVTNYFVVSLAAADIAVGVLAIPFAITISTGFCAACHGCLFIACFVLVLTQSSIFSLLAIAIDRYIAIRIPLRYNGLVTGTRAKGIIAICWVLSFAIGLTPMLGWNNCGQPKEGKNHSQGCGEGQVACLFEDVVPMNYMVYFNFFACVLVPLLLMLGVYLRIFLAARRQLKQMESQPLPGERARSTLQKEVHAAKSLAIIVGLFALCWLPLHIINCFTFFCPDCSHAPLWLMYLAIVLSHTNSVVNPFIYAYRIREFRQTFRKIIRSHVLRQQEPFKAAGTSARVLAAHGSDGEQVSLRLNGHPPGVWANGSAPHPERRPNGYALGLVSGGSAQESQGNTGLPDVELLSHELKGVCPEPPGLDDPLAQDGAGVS
Procedure: Evaluation experiment of the binding affinity IC50 of the compounds 1-61 to hA2A receptor
40 uL of ULTIMA GOLD scintillation fluid was added to each well and the CPM (count per minute) value was read by TopCount.

hA2A receptor [2] = target: T1, hA2A receptor; assay: binding affinity IC50 to hA2A receptor (SPA beads, Effect Embodiment 1); conditions: A2A receptor membrane, 1 hour at room temperature, read-out: IC50 values of compound 1 binding affinity to hA2A receptor
Procedure: evaluation experiment of the binding affinity IC50 of the compound 1 to hA2A receptor.
Experimental procedure • 1. Preparation of the test compound. • 1) The compound mother plate (1500 rpm, 1 minute) was centrifuged; • 2) 50 Nanoliters was transferred from the compound mother plate to the reaction plate by a nano-sound sonic pipetting system; • 2. Preparation of buffer medium membrane, preparation of beads suspension; • 1) DMSO was added to the assay buffer, final concentration of DMSO was 1%; • 2) homogenized A2A receptor membrane was connected to a 1 mL syringe five times by a No. 26 needle (to avoid air bubbles); • 3) the buffer, A2A receptor membrane and ADA were mixed, and was let stand for 15 minutes at room temperature; • 4) SPA beads were added and mixed well with A2A receptor membrane; • 3. Preparation of radioisotope buffer • 4. Mix reaction reagents • 1) 20 μL of radioactive buffer solution was added into the reaction plate; • 2) 30 μL of membrane and […] suspension was added into the reaction plate; • 3) the plate was sealed and incubated for 1 hour at room temperature with vigorous mixing and shaking; • 4) the beads were precipitated for 4-5 minutes before reading. • 5) Reading with Microbeta; • 5. Data processing

| SMILES | IC50 (hA2A receptor [1]) [nM] | IC50 (hA2A receptor [2]) [nM] |
| --- | --- | --- |
| Nc1nc(-c2ccco2)c2c(n1)C(Cc1ccccc1F)OC2=O (stereo not shown) [Compound 1, 2-amino-7-(2-fluorobenzyl)-4-(furan-2-yl)-5H,7H-furo[3,4-d]pyrimidin-5-one] | 14.7 | 79 |
| CN1C(=O)c2c(-c3ccco3)nc(N)nc2C1Cc1ccc(F)cc1F (stereo not shown) [Compound 47, 2-amino-7-((2,4-difluorophenyl)methyl)-4-(furan-2-yl)-6-methyl-5H,6H,7H-pyrrolo[3,4-d]pyrimidin-5-one] | 16.4 | – |
| Cc1ccc(-c2nc(N)nc3c2C(=O)N(C)C3=Cc2ccc(F)cc2F)o1 [Compound 48, 2-amino-7-((2,4-difluorophenyl)methylene)-4-(5-methylfuran-2-yl)-6-methyl-5H,6H,7H-pyrrolo[3,4-d]pyrimidin-5-one] | 13.2 | – |
| Cc1ccc(-c2nc(N)nc3c2C(=O)N(C)C3Cc2ccc(F)cc2F)o1 (stereo not shown) [Compound 49, 2-amino-7-((2,4-difluorophenyl)methyl)-4-(5-methylfuran-2-yl)-6-methyl-5H,6H,7H-pyrrolo[3,4-d]pyrimidin-5-one] | 32.1 | – |
| Cc1ccc(-c2nc(N)nc3c2C(=O)N(C)C3=Cc2ccccc2F)o1 [Compound 50, 2-amino-7-((2-fluorophenyl)methylene)-4-(5-methylfuran-2-yl)-6-methyl-5H,6H,7H-pyrrolo[3,4-d]pyrimidin-5-one] | 7.3 | – |
| Cc1ccc(-c2nc(N)nc3c2C(=O)N(C)/C3=C\c2ccccc2C(F)(F)F)o1 [Compound 51, 2-amino-7-((2-(trifluoromethyl)phenyl)methylene)-4-(5-methylfuran-2-yl)-6-methyl-5H,6H,7H-pyrrolo[3,4-d]pyrimidin-5-one] | 4.7 | – |
| Cc1ccc(-c2nc(N)nc3c2C(=O)N(C)C3=Cc2ccccc2OC(F)(F)F)o1 [Compound 52, 2-amino-7-((2-(trifluoromethoxyl)phenyl)methylene)-4-(5-methylfuran-2-yl)-6-methyl-5H,6H,7H-pyrrolo[3,4-d]pyrimidin-5-one] | 3.6 | – |
| Cc1ccc(-c2nc(N)nc3c2C(=O)N(C)C3Cc2ccccc2OC(F)(F)F)o1 (stereo not shown) [Compound 53, 2-amino-7-((2-(trifluoromethoxyl)phenyl)methyl)-4-(5-methylfuran-2-yl)-6-methyl-5H,6H,7H-pyrrolo[3,4-d]pyrimidin-5-one] | 56.2 | – |
| Cc1ccc(-c2nc(N)nc3c2C(=O)N(C)C3Cc2ccccc2C(F)(F)F)o1 (stereo not shown) [Compound 54, 2-amino-7-((2-(trifluoromethyl)phenyl)methyl)-4-(5-methylfuran-2-yl)-6-methyl-5H,6H,7H-pyrrolo[3,4-d]pyrimidin-5-one] | 34.7 | – |
| Cc1ccc(-c2nc(N)nc3c2C(=O)N(C)C3Cc2ccccc2F)o1 (stereo not shown) [Compound 55, 2-amino-7-((2-fluorophenyl)methyl)-4-(5-methylfuran-2-yl)-6-methyl-5H,6H,7H-pyrrolo[3,4-d]pyrimidin-5-one] | 29.3 | – |
| Cc1ccc(-c2nc(N)nc3c2C(=O)N(C)C3=Cc2ccc(F)cc2C(F)(F)F)o1 [Compound 56, 2-amino-7-((2-(trifluoromethyl)-4-fluorophenyl)methylene)-4-(5-methylfuran-2-yl)-6-methyl-5H,6H,7H-pyrrolo[3,4-d]pyrimidin-5-one] | 3.4 | – |
| Cc1ccc(-c2nc(N)nc3c2C(=O)N(C)C3Cc2ccc(F)cc2C(F)(F)F)o1 (stereo not shown) [Compound 57, 2-amino-7-((2-(trifluoromethyl)-4-fluorophenyl)methyl)-4-(5-methylfuran-2-yl)-6-methyl-5H,6H,7H-pyrrolo[3,4-d]pyrimidin-5-one] | 152 | – |
| Cc1ccc(-c2nc(N)nc3c2C(=O)N(C)C3Cc2cc[n+]([O-])cc2)o1 (stereo not shown) [Compound 58, 4-((2-amino-6-methyl-4-(5-methylfuran-2-yl)-5-carbonyl-5H-pyrrolo[3,4-d]pyrimidin-7(6H)-ene)methyl)-N-oxide pyridine] | 21 | – |
| Cc1ccc(-c2nc(N)nc3c2C(=O)N(C)C3Cc2ccncc2)o1 (stereo not shown) [Compound 59, 2-amino-6-methyl-4-(5-methylfuran-2-yl)-7-(pyridin-4-ylmethyl)-6,7-dihydro-5-carbonyl-5H-pyrrolo[3,4-d]pyrimidine] | 179 | – |
| Cc1ccc(-c2nc(N)nc3c2n(C)c(=O)n3-c2ccccc2C(F)(F)F)o1 [Compound 61, 2-amino-7-methyl-6-(5-methylfuran-2-yl)-9-(2-(trifluoromethyl)phenyl)-8(9H)-carbonyl-7H-purine] | 213 | – |
